In US10961215B2, “N-aryl and N-heteroaryl piperidine derivatives as liver X receptor beta agonists, compositions, and their use” (Merck Sharp & Dohme Corp., priority 2016, dated 2021):

Columns and labels:
[1] = biological target: T1, GST tagged LXRalpha LBD (ligand binding domain) (Homo sapiens, UniProt Q13133); experiment: LanthaScreen TR-FRET Liver X Receptor Coactivator Assay, LXR alpha-LBD (co-activator recruitment; IP and % Emax relative to T0901317); type: biochemical; conditions: for LXR alpha IP (nM) / EC50: Inflection Point of co-activator recruitment, LXR alpha-LBD, TR-FRET; for Emax: read-out: LXR alpha actiivty at max dose (%)
T1 construct: purchased Invitrogen pv4655
T1 sequence (Q13133 209-447 limits assumed): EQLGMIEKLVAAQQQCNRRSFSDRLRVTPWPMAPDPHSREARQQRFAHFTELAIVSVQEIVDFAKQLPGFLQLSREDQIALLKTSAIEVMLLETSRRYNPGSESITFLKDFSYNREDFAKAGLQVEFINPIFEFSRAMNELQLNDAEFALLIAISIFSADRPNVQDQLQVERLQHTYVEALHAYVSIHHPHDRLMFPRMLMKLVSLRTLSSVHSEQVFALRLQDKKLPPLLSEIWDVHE
Outline: (§1)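 TR-FRET coactivator recruitment; LBD + cpd, then fluorescein coactivator peptide/Tb anti-GST Ab mix; RT incubation; IP and Emax vs T0901317.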

[2] = biological target: T2, GST tagged LXRbeta LBD (ligand binding domain) (Homo sapiens, UniProt P55055); experiment: LanthaScreen TR-FRET Liver X Receptor Coactivator Assay, LXR beta-LBD (co-activator recruitment; IP and % Emax relative to T0901317); type: biochemical; conditions: for EC50: Inflection Point of co-activator recruitment, LXR beta-LBD, TR-FRET; for Emax: read-out: LXR beta actiivty at max dose (%)
T2 construct: purchased Invitrogen pv4658.pps
T2 sequence (P55055 222-460 limits assumed): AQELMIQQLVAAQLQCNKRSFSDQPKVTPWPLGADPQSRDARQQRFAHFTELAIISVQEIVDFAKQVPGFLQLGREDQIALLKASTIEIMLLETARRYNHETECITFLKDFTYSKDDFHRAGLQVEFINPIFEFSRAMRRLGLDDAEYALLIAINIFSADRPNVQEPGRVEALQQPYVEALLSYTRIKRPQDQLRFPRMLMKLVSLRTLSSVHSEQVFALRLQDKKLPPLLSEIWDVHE
Outline: as §1

[3] = efficacy at max dose in relation to reference T0901317, LXR alpha-LBD
[4] = efficacy at max dose in relation to reference T0901317, LXR beta-LBD

| SMILES | LXR alpha IP (nM) [1] | Emax [1, 3] | EC50 [2] | Emax [2, 4] | EC50 [1] | LXR alpha actiivty at max dose (%) [1, 3] | LXR beta actiivty at max dose (%) [2, 4] |
| --- | --- | --- | --- | --- | --- | --- | --- |
| COc1cccc([C@@](O)(C(=O)N(C)CCCC2CCN(c3ccc(C(=O)N4CCC4)c(Cl)n3)CC2)C(F)(F)F)c1 [Example 2-15, (R)-N-(3-(1-(5-(azetidine-1-carbonyl)-6-chloropyridin-2-yl)piperidin-4-yl)propyl)-3,3,3-trifluoro-2-hydroxy-2-(3-methoxyphenyl)-N-methylpropanamide] | No IP | 0% | 272 nM | 49% |  |  |  |
| COc1cccc([C@@](O)(C(=O)N(C)CC[C@H]2CC23CCN(c2ccc(C(=O)N(C)C4CC4)c(Cl)n2)CC3)C(F)(F)F)c1 [Example 7-18, 2-chloro-N-cyclopropyl-N-methyl-6-((R)-1-(2-((R)-3,3,3-trifluoro-2-hydroxy-2-(3-methoxyphenyl)-N-methylpropanamido)ethyl)-6-azaspiro[2.5]octan-6-yl)nicotinamide] | No IP | 16% | 45 nM | 57% |  |  |  |
| CN(C)C(=O)c1ccc(N2CCC(CCCNC(=O)[C@@](O)(c3cccc(O)c3)C(F)(F)F)CC2)nc1Cl [Example 5-21, (S)-2-chloro-N,N-dimethyl-6-(4-(3-(3,3,3-trifluoro-2-hydroxy-2-(3-hydroxyphenyl)propanamido)propyl)piperidin-1-yl)nicotinamide] |  | 36% | 314 nM | 91% | 8720 nM |  |  |
| COc1ccccc1[C@]1(C(=O)N(C)CCCC2CCN(c3ccc(C(=O)N(C)C)c(Cl)n3)CC2)CCCO1 [Example 1-59, (S)-2-chloro-6-(4-(3-(2-(2-methoxyphenyl)-N-methyltetrahydrofuran-2-carboxamido)propyl)piperidin-1-yl)-N,N-dimethylnicotinamide] |  | 24% | 118 nM | 80% | 2860 nM |  |  |
| CN(C)C(=O)c1ccc(N2CCC(CCCN(C)C(=O)[C@](O)(c3cccc(C(F)(F)F)c3)C(F)(F)F)CC2)nc1Cl [Example 1-49, (R)-2-chloro-N,N-dimethyl-6-(4-(3-(3,3,3-trifluoro-2-hydroxy-N-methyl-2-(3-(trifluoromethyl)phenyl)pro-panamido)propyl)piperidin-1-yl)nicotinamide] | No IP | 0% | 54 nM | 50% |  |  |  |
| CN(C)C(=O)c1ccc(N2CCC(CCCNC(=O)[C@](O)(c3cccc(C4CC4)c3)C(F)(F)F)CC2)nc1Cl [Example 5-14, (R)-2-chloro-6-(4-(3-(2-(3-cyclopropylphenyl)-3,3,3-trifluoro-2-hydroxy-propanamido)propyl)piperidin-1-yl)-N,N-dimethylnicotinamide] | No IP | 0% | 207 nM | 44% |  |  |  |
| CNC(=O)c1ccc(N2CCC(CCCN(C)C(=O)[C@](O)(c3cccc(OC)c3)C(F)(F)F)CC2)nc1Cl [Example 2-11, (R)-2-chloro-N-methyl-6-(4-(3-(3,3,3-trifluoro-2-hydroxy-2-(3-methoxyphenyl)-N-methylpropanamido)propyl)piperidin-1-yl)nicotinamide] | No IP | 13% | 524 nM | 60% |  |  |  |
| CN(C)C(=O)c1ccc(N2CCC(CCCN(C)C(=O)[C@](O)(c3ccccc3)C(F)(F)F)CC2)nc1Cl [Example 1-1, (R)-2-chloro-N,N-dimethyl-6-(4-(3-(3,3,3-trifluoro-2-hydroxy-N-methyl-2-phenylpropanamido)propyl)piperidin-1-yl)nicotinamide] |  |  |  |  | 752 nM | 27% | 78% |
| CC(C)N(C)C(=O)c1ccc(N2CCC3(CC2)C[C@H]3CCN(C)C(=O)[C@](O)(c2ccccc2)C(F)(F)F)cc1Cl [Example 7-29, 2-chloro-N-isopropyl-N-methyl-4-((S)-1-(2-((R)-3,3,3-trifluoro-2-hydroxy-N-methyl-2-phenylpropanamido)ethyl)-6-azaspiro[2.5]octan-6-yl)benzamide] | No IP | 5% | 611 nM | 40% |  |  |  |
| CN(C)C(=O)c1ccc(N2CCC(CCCN(C)C(=O)[C@](O)(c3cc(F)cc(Cl)c3)C(F)(F)F)CC2)nc1Cl [Example 1-12, (R)-2-chloro-6-(4-(3-(2-(3-chloro-5-fluorophenyl)-3,3,3-trifluoro-2-hydroxy-N-methylpropanamido)propyl)piperidin-1-yl)-N,N-dimethylnicotinamide] |  | 23% | 13 nM | 78% | 372 nM |  |  |
| CN(C)C(=O)c1ccc(N2CCC(CCCN(C)C(=O)[C@]3(c4ccccc4)CC(F)(F)CO3)CC2)nc1Cl [Example 1-66, (R)-2-chloro-6-(4-(3-(4,4-difluoro-N-methyl-2-phenyltetrahydrofuran-2-carboxamido)propyl)piperidin-1-yl)-N,N-dimethylnicotinamide] | No IP | 7% | 138 nM | 82% |  |  |  |
| CC(C)Oc1cccc(C(O)(C(=O)N(C)CCCC2CCN(c3ccc(C(=O)N(C)C)c(Cl)n3)CC2)C(F)(F)F)c1 (stereo not drawn) [Example 1-32, 2-chloro-N,N-dimethyl-6-(4-(3-(3,3,3-trifluoro-2-hydroxy-2-(3-isopropoxyphenyl)-N-methylpropanamido)propyl)piperidin-1-yl)nicotinamide] | No IP | 0% | 95 nM | 48% |  |  |  |
| CC(C)NC(=O)c1ccc(N2CCC3(CC2)C[C@@H]3CCN(C)C(=O)[C@](O)(c2ccccc2)C(F)(F)F)cc1Cl [Example 7-12, 2-chloro-N-isopropyl-4-((R)-1-(2-((R)-3,3,3-trifluoro-2-hydroxy-N-methyl-2-phenylpropanamido)ethyl)-6-azaspiro[2.5]octan-6-yl)benzamide] |  | 47% | 79 nM | 64% | 765 nM |  |  |
| COc1cccc([C@@](O)(C(=O)N(C)CCC2CC23CCN(c2ccc(C(=O)NC(C)C)c(Cl)n2)CC3)C(F)(F)F)c1 (stereo in doubt) [Example 7-19, 2-chloro-N-isopropyl-6-((R)-1-(2-((R)-3,3,3-trifluoro-2-hydroxy-2-(3-methoxyphenyl)-N-methylpropanamido)ethyl)-6-azaspiro[2.5]octan-6-yl)nicotinamide] |  | 27% | 76 nM | 58% | 688 nM |  |  |

Further lines, results first:

| LXR alpha IP (nM) [1] | Emax [1, 3] | EC50 [2] | Emax [2, 4] | EC50 [1] | LXR alpha actiivty at max dose (%) [1, 3] | LXR beta actiivty at max dose (%) [2, 4] | SMILES |
| --- | --- | --- | --- | --- | --- | --- | --- |
| No IP | 0% | 124 nM | 44% |  |  |  | COc1cccc([C@@](O)(C(=O)N(C)C[C@@H]2C[C@@H]2CC2CCN(c3ccc(C(=O)N(C)C)c(Cl)n3)CC2)C(F)(F)F)c1 [Example 18-2, 2-chloro-N,N-dimethyl-6-(4-(((1S,2R)-2-(((R)-3,3,3-trifluoro-2-hydroxy-2-(3-methoxyphenyl)-N-methylpropanamido)methyl)cyclopropyl)methyl)piperidin-1-yl)nicotinamdie] |
| No IP | 12% | 131 nM | 56% |  |  |  | CN(C)C(=O)c1ccc(N2CCC(C[C@H]3C[C@H]3CN(C)C(=O)[C@](O)(c3ccccc3)C(F)(F)F)CC2)nc1Cl [Example 18-1, 2-chloro-N,N-dimethyl-6-(4-(((1S,2R)-2-(((R)-3,3,3-trifluoro-2-hydroxy-N-methyl-2-phenylpropanamido)methyl)cyclopropyl)methyl)piperidin-1-yl)nicotinamide] |
| No IP | 0% | 3730 nM | 40% |  |  |  | CNC(=O)c1ccc(N2CCC(c3ccc(NC(=O)[C@](O)(c4cccc(OC)c4)C(F)(F)F)cc3)CC2)cc1Cl [Example 10-2, (R)-2-chloro-N-methyl-4-(4-(4-(3,3,3-trifluoro-2-hydroxy-2-(3-methoxyphenyl)propanamido)phenyl)piperidin-1-yl)benzamide] |
| No IP | 7% | 653 nM | 53% |  |  |  | CNC(=O)c1ccc(N2CCC(CC3CC(NC(=O)[C@](O)(c4cccc(OC)c4)C(F)(F)F)C3)CC2)cc1Cl (stereo partly drawn) [Example 11-5, (R)-2-chloro-N-methyl-4-(4-((3-(3,3,3-trifluoro-2-hydroxy-2-(3-methoxyphenyl)propanamido)cyclobutyl)methyl)piperidin-1-yl)benzamide] |
| No IP | 1% | 4440 nM | 36% |  |  |  | CNC(=O)c1ccc(N2CCC([C@H]3C[C@H]3CNC(=O)[C@](O)(c3cccc(OC)c3)C(F)(F)F)CC2)nc1Cl [Example 15-11, 2-chloro-N-methyl-6-(4-((1R,2R)-2-(((R)-3,3,3-trifluoro-2-hydroxy-2-(3-methoxyphenyl)propanamido)methyl)cyclopropyl)piperidin-1-yl)nicotinamide] |
